Source: patent US20260159474A1, “Aminoindane Compounds and Compositions and Methods of Their Therapeutic Use” (Solvonis Therapeutics Ireland Holdings Limited, priority 2021, published 2026)
Like-named read-outs stand apart in the source and are kept apart here.

Tests used:
human DAT = molecular target: T1, human DAT (Homo sapiens, UniProt Q01959); test: DAT uptake SPA in hDAT-CHO cells; type: cell-based
T1 construct: expressed in transfected cells; host or cells: CHO (hDAT-CHO)
Method: Methods-Evaluation of Monoamine Uptake/Transporter Inhibition: Inhibitory activity on DAT function was measured using an uptake assay in a recombinant CHO cell line stably expressing human DAT (hDAT-CHO). Potency was measured in terms of pIC50 by testing for inhibition of [3H]-dopamine uptake in hDAT-CHO cells in a multiwell format SPA.
Briefly, on experiment days, hDAT-CHO cells were detached using Versene and added at a density of approximately 300,000 cells/mL to the SPA Mixture, which contains the following components in Assay Buffer (20 mM HEPES, 145 mM NaCl, 5 mM KCl, 2 mM CaCl2), 1 mM MgCl2, 5.5 mM glucose, 0.01% Pluronic F127, pH 7.3): 0.75 mg/mL SPA Imaging beads (RPNQ0001, PerkinElmer), 10 μM pargyline and 80 nM of [3H]-dopamine (NET673, PerkinEImer). The SPA Mixture was added 20 μL/well to 384 well plates containing 0.1 μL/well of test compound in neat DMSO (11 points of 1:5 serial dilution, 0.5% DMSO final) or 0.1 μL of DMSO (total uptake) or 0.1 μL of the standard inhibitor indatraline (at 1 μM final concentration, as nonspecific uptake). Plates were sealed with a Top-seal A and read using a Microbeta counter (PerkinElmer) after 45 minutes of incubation at room temperature. […] The SPA Mixture was added 20 μL/well to 384 well plates containing 0.1 μL/well of test compound in neat DMSO (11 points of 1:5 serial dilution, 0.5% DMSO final), 0.1 μL of DMSO (total uptake), or 0.1 μL of the standard inhibitor indatraline (1 μM, nonspecific uptake). Plates were sealed with a Top-seal A and read using a Microbeta counter (PerkinElmer) after 120 minutes of incubation at room temperature.
For both tests, the raw experimental data (cpm) were elaborated for the determination of pIC50/IC50 values as % inhibition of specific uptake.

[1] = tested on: 5-HT release in rat synaptosomes; test: Serotonin release assay in rat cortex synaptosomes; type: biochemical; conditions: for 5-HT Release (pEC50): rat cortex synaptosomes, % of maximal release with 50 μM MDMA, n=2; for SERT/DAT Release Ratio: ratio of 5-HT and DA release potency, rat synaptosomes
Method: Methods-Evaluation of Monoamine Release: The potency of therapeutic compounds for stimulating DA release was measured by an endpoint release filtration assay in a 96-well format using rat synaptosomes, essentially as described by Sandtner et al. (Mol Pharmacol., 2016; 89(1):165-75.) and Baumann et al. (Neuropsychopharmacol, 2013; 38:552-562.) with some variations. One male rat was euthanized, and striatum/cortex regions were dissected over ice. The striatum portions were weighed and put in a glass tube containing ice-cold 0.32 M sucrose (dilution 1:24 w/v) for homogenization, while the frontal cortex tissue was diluted in ice-cold 0.32 M sucrose, 1:20 w/v. Tissues were homogenized and centrifuged for 10 mins at 1000×g. The two supernatants from striatum and cortex (crude synaptosomes) were retained on ice until use.
Test compounds were then serially diluted 1:4 in neat DMSO as concentration-response curves (CRC) of 11 points. To each well of a 2-mL 96 deep-well plate (Whatman UNIPLATE 96 well) were added: 2 μL of a concentration-response curve (CRC) of test compounds or 2 μL of DMSO (no-release condition) or 2 μL of MDMA 10 mM solution (final 50 μM, for maximal release), followed by 200 μL/well of complete Krebs-phosphate buffer (126 mM NaCl, 2.4 mM KCl, 0.83 mM CaCl2), 0.8 mM MgCl2, 0.5 mM KH2PO4, 0.5 mM Na2SO4, 11.1 mM glucose, 0.05 mM pargyline, 1 mg/mL ascorbic acid, freshly added, pH 7.4), containing 1 μM reserpine to block vesicular uptake of substrate. Desipramine (100 nM) and citalopram (100 nM) were also added to the release assay buffer in order to inhibit NET and SERT uptake, respectively. The final compound dilution, then, was 1:200 in 0.5% DMSO.
The raw data (cpm) from residual radioactivity onto the filter were elaborated for the determination of pEC50/EC50 values. Specifically, the compound effect was expressed as the percent of maximal release obtained with 50 μM MDMA (100% release) in comparison to vehicle (0.5% DMSO, 0% release). Both MDMA and D-amphetamine in CRC were used as internal controls in each release experiment. In each plate, for both 0% and 100% of release, the signal window was monitored and Z′ calculations were determined using the raw data of four replicates. 5-HT release was calculated in an identical fashion, except that 5 nM 3H-serotonin was added to crude cortex synaptosomes preparation diluted 1:13 (v/v) in complete Krebs-phosphate buffer containing 1 μM Reserpine, 100 nM GBR12909 and 100 nM nomifensine to block vesicular, DAT, and NET uptake, respectively. Synaptosomes were then loaded with 3H-5HT for 60 minutes at RT. After dispensing loaded synaptosomes onto a compound plate (200 μL/well), the release reaction proceeded for an additional 15 minutes. Stop by filtration, counting, and data elaboration were performed as described for DA release. Compounds were tested in duplicate (n=2).

CYP3A4 = molecular target: T2, CYP3A4 (Homo sapiens, UniProt P08684); test: CYP450 inhibition, fluorescent probe substrate; type: in vitro ADME
T2 construct: purchased Life Technologies P2377; host or cells: Baculosomes
Method: Methods: Recombinant human CYP450 isoenzymes were used to metabolize pro-fluorescent probe substrates to fluorescent products. IC50 values determined from the effect of test compounds on the metabolism of these probe substrates were then used to determine inhibitory potency against CYP450 isoforms. The chemical reagents included:
The test system was based on a three-step procedure with a “mix and read” format, where reaction and reading were performed at 37° C. The assays described herein measure in vitro inhibitory effects (pIC50) of compounds on the human P450 isoforms (1A2, 2B6, 2C8, 2C9, 2C19, 2D6, 3A4) expressed in recombinant microsomes. Pro-fluorescent probe substrates were metabolized to fluorescent products by the enzymes. Fluorescence was measured in kinetic mode (1 read/minutes for 10 minutes), and the fluorescence rate was calculated.
Inhibition of the fluorescent signal resulting from P450 activation indicated inhibitory activity and facilitated calculation of the compound pIC50. A quality check was included in each compound plate, wherein the signal window was monitored by performing Z′ calculations ([…] ) and the antagonist potency of internal standards was within the pIC50±2SD range. Concentration response curves (CRCs) of compounds were run on two different test occasions (n 2) by preparing serial dilutions from the same compound stock solution.
To prepare the compound plate, test compounds serial dilutions 1 to 3 were performed from a 10 mM stock solution in DMSO by Biomek FX to generate 10 point CRC with the highest concentrations in columns 3 and 13.
100% DMSO was placed in columns 1 and 2 and used for assay low controls. CYP inhibitor (10 mM miconazole solution in DMSO) was placed in columns 23 and 24 and served as an assay high controls. 1 μL copy plates were then stamped into V-bottom drug plates at a concentration that is 200 fold the final assay concentration. The copy plates were diluted prior to the experiment with assay buffer to reach 4 times the final assay concentration (2% w/v DMSO).
A reference compound (e.g., miconazole) was included in each compound plate in row A, column 3 and 13. The reference compound was diluted and stamped together with test compounds. The final concentrations of the 10 point CRCs of test compounds in the assay plate were 5.00E-05; 1.67E-05; 5.56E-06; 1.85E-06; 6.17E-07; 2.06E-07; 6.86E-08; 2.29E-08; 7.62E-09 and 2.54E-09, respectively. All solutions were prepared immediately before the assay.
Microsomes were added to the buffer prior to the substrate addition. The solution was carefully mixed without vortexing. 30 μL/well of the mixture was then transferred to the assay plate (384-well black plate) using a 16-channel pipette. For each P450 isoformn, a separate plate was prepared and labeled with a barcode. For fluorescence measurement, 10 μL/well of the test compounds were transferred from the compound plate to the assay plate using Biomek FX and the appropriate protocol. The assay plate was then incubated at 37° C. for 10 minutes on a shaker to allow for the interaction between compounds and enzymes.
10 μL/well of the cofactor was then added to the assay plate using the Multidrop before placing the assay plate in the plate reader EnVision to measure fluorescence. The overall final DMSO concentration for the assay was 0.5%. Plates were read every minute for 10 minutes, according to a P450 isoform specific protocol, as shown below.
The CYP3A4 and CYP2C8 were assayed using the Vivid CYP3A4 Baculosomes, CYP2C8 Baculosomes and Vivid DBOMF Substrate (Life Technologies, cat. P2377, PV6138 and P2974 respectively), while 2B6 is tested by Vivid CYP2B6 Baculosomes and Vivid BOMCC Substrate (Life Technologies, cat. P3028 and P2975). Test compounds were prepared as specified above. […]

[2] = [3H]-dopamine uptake, hDAT-CHO cells, read-out: DAT Uptake SPA (pIC50) (converted)
[3] = recombinant human isoenzyme, n=2, read-out: Inhibition of CYP3A4, IC50

T1 sequence (Q01959 whole entry): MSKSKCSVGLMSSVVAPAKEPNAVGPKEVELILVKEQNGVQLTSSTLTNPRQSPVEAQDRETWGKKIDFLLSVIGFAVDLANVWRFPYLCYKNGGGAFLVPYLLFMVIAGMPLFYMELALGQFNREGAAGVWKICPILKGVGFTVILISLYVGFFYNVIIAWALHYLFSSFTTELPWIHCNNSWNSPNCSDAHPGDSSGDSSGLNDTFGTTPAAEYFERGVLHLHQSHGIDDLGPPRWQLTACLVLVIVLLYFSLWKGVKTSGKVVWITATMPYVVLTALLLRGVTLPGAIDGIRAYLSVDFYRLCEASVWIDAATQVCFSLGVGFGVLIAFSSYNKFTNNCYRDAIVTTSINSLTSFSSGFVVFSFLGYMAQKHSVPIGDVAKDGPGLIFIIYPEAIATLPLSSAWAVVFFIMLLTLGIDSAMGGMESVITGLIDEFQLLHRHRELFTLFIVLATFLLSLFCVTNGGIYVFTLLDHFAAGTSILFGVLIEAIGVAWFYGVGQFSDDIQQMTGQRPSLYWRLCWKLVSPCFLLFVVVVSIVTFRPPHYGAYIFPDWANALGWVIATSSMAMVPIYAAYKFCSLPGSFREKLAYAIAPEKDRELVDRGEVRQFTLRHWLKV
T2 sequence (P08684 whole entry): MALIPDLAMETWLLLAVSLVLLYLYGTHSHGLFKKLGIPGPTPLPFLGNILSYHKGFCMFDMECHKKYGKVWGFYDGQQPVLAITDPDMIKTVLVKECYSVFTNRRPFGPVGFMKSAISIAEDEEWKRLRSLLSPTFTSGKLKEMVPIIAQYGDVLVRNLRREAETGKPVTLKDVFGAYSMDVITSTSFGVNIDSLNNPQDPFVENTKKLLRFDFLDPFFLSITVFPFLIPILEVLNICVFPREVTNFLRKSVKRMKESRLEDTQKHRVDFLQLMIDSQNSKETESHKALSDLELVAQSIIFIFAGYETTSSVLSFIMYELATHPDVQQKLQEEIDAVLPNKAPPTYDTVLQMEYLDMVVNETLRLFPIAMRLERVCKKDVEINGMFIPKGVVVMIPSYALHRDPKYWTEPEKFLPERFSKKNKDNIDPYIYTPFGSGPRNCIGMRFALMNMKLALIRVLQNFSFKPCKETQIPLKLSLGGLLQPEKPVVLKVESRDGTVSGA

Compound	IC50 (human DAT; [2]) [µM]	5-HT Release (pEC50) [1]	SERT/DAT Release Ratio [1]	IC50 (CYP3A4; [3]) [µM]	DAT Uptake SPA (pIC50) (human DAT; [3H]-dopamine uptake, hDAT-CHO cells)	IC50 (human DAT) [µM]	IC50 (CYP3A4) [µM]
COC(=O)c1cc2c(cc1OC)CC(N)C2 (stereo not drawn) [CMP-401]	100	5.5	>35	> 50	–	–	–
COC(=O)COc1ccc2c(c1)CC(N)C2 (stereo not drawn) [CMP-402]	100	5.0	>10	> 50	–	–	–
COC(=O)c1ccc2c(c1)CC(N)C2 (stereo not drawn) [CMP-405, 2-aminoindane-5-methylcarboxylate]	20	6.1	3.2	> 50	–	–	–
CNC(C)Cc1ccc2c(c1)OCO2 (stereo not drawn) [MDMA]	–	7.0	2.6	> 50	5.7	–	–
COc1ccc2c(c1)CC(N)C2 (stereo not drawn) [MEAI, 5-methoxy-2-aminoindane]	–	6.8	28	–	–	50.1	> 50
COc1cc2c(cc1C)CC(N)C2 (stereo not drawn) [MMAI, 5-methoxy-6-methyl-2-aminoindane]	–	7.4	575	–	–	50.1	> 50
